Legend:
[1] = target: T1, SSB-2/elongin BC complex ubiquitination of iNOS (Mus musculus, UniProt O88838); test: Cell-free ubiquitination assay of iNOS; assay type: biochemical; details: excess free iNOS peptide; 10 and 40 min incubation
T1 sequence (O88838 1-264): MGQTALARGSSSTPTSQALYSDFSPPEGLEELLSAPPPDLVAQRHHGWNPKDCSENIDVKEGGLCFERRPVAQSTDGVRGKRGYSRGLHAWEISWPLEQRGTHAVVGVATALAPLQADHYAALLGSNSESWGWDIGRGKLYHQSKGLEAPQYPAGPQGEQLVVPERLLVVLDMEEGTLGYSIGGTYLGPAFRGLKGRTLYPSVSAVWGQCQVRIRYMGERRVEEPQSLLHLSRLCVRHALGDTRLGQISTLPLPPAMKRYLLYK
Procedure: Ubiquitination assays were performed in 20 μl in 20 mM Tris-HCl, 50 mM NaCl, 5 mM MgCl2, 2.5 mM ATP, 0.1 mM DTT. Reactions were stopped by the addition of 2×SDS PAGE loading buffer and heating at 95° C. for 5 min. Reactions contained 0.1 μM E1, 2.5 μM E2, 2.5 μM E3, 50 μM ubiquitin and 5 μM SSB-2/elonginBC and were incubated for 30 minutes or as indicated at 37° C. Cell lysate was added as substrate. Results were visualised by Western Blot using anti iNOS monoclonal antibody following SDS-PAGE.
SOCS box proteins recruit an E3 ubiquitin ligase complex which in the presence of E1 and […] enzymes polyubiquitinates interacting proteins, targeting them for proteasomal degradation. […] LPS/IFNγ stimulated macrophage lysates were used as a source of iNOS and incubated with ubiquitin and a trimeric SSB-2/elongin BC complex, in the presence of E1 and E2 enzymes, Rbx 1 and Cullin5. The reaction mixtures were then analysed by SDS-PAGE and Western blot with anti-iNOS antibodies. Enhanced. polyubiquitination of iNOS, as evidenced by higher molecular weight smearing, was observed after 10 and 40 min incubation in the presence of the SSB2/elongin BC complex.

iNOS/SSB-2 interaction = target: T2, iNOS/SSB-2 interaction (Mus musculus, UniProt O88838); test: Peptide competition assay (anti-Flag immunoprecipitation, anti-iNOS Western blot); assay type: binding
T2 construct: cDNA clones covering the entire coding region of murine SSB-1 to −4 were isolated; expressed in transfected cells; host or cells: 293T cells (Flag-SSB-2); C57BL/6 BMDM lysate (iNOS)
T2 sequence (O88838 1-264): T1 sequence (O88838 1-264)
Procedure: 293T cells were transfected with vector alone or a construct expressing FLAG-tagged SSB-2 and lysed as described above. iNOS peptide (SEQ ID NO:3) was added in increasing concentrations (0.001, 0.01, 0.1, 1.0 and 10 μM) to iNOS-expressing lysate generated from C57BL/6 BMDM stimulated with LPS/IFNγ. 293T lysates were then added to the macrophage/iNOS peptide lysates and incubated for 1 h at 4° C. Anti-Flag antibody coupled to Sepharose beads (M2, Sigma) was added to the lysate mix and incubated for 3 h at 4° C. Complexes were then separated by SDS-PAGE and analysed by Western blot with anti-iNOS antibodies.
Given that there are a number of disease states where elevated or prolonged iNOS expression might be beneficial, the present inventors were interested in whether the iNOS/SSB-2 interaction could be disrupted. As a simple proof-of-concept experiment, free iNOS peptide was used to competitively disrupt the interaction. 293T cells were transiently transfected with cDNA expressing Flag-tagged SSB-2, lysed and mixed with iNOS-expressing macrophage lysates which contained increasing amounts of free iNOS peptide.

Ac-KEEKDINNNVKKT-NH2 [I, Ac-KEEKDINNNVKKT-NH2]
inhibition of polyubiquitination of iNOS [1]: completely inhibited | inhibition of SSB-2 interaction with iNOS (iNOS/SSB-2 interaction; 100 nM iNOS peptide): modestly inhibited | inhibition of SSB-2 interaction with iNOS (iNOS/SSB-2 interaction; 1000 nM peptide): completely inhibited
